The series is described as follows: pKa of oil formers by titration with tetrabutylammonium hydroxide. In kind it is physicochemical. The note with it: titration with TBAH in dimethyl sulfoxide/water (100:0.25).

Regarding tricresyl phosphate [TCP], the “pKa of oil former” value is listed as more than 20.

Source of the values: patent publication US6379879B2, “Color photographic silver halide material” (Agfa-Gevaert, priority 2000, dated 2002).
